In patent US20100092459A1, “Protein Complex and Uses” (IMPERIAL INNOVATIONS LIMITED, priority 2006, published 2010):

Experiments:
[1] = tested on: FGF-2-mediated ERK phosphorylation in H510 cells; assay: FGF-2-induced ERK phosphorylation in H510 cells, Western blot for biphospho-ERK; format: cell-based; conditions: for inhibition of FGF-2-mediated ERK phosphorylation: dose range of inhibitor 1 h, then FGF-2 0.1 ng/ml 5 min
Protocol: (B) Representative blots from (A) were quantified by optical densitometry normalised for actin. (C) H69 cells transfected with empty (V) or a wt-PKCε-GFP expressing vector (a) were analysed for phospho-ERK, XIAP and Bcl-XL levels. (D) Baseline level cell death in V-H69 and ε-H69 cells growing in 10% FCS was determined by flow cytometry using Annexin V staining. (E) ε-H69 and V-H69 cells in SFM were treated with or without 0.1 μM etoposide (VP-16) and cell numbers determined 96 h later. Conditions were performed in quadruplicates and the average cell number±SEM represented as fold over untreated. (F) H510 cells in SFM were treated with or without 40 μM ε-TITAT, ΕTI-TITAT or TITAT for 4 h prior to stimulation for 5 min with or without FGF-2 (0.1 ng/ml). Cell lysates were Western-blotted for biphospho-ERK. […] (G) H510 cells transfected with PKCε or scrambled (sc) siRNA were stimulated with or without FGF-2. Lysates were analysed for PKCε levels and Erk phosphorylation. (A, C, F and G) Lamin B and actin immunodetection were used as loading controls.
(A) H510 cells were treated with or without a dose range of GF109203X (GF), Gö6976 (Go), Hispidin (His), BAPTA (BA) or Rottlerin (Rot) for 1 h prior to stimulation for 5 min in the presence or absence of either FGF-2 (0.1 ng/ml) or PDBu (400 nM). Cell lysates were analysed by SDS-PAGE/Western-blotting for biphospho-ERK. Lamin immunodetection was used as loading control. (B-top panel) Equal protein amounts from SCLC cell lines were compared for their PKC expression pattern. (B-bottom panel) SCLC cells in SFM were stimulated with and without FGF-2 for 5 min and cell lysates analysed by SDS-PAGE/WB for Erk phosphorylation. PKCε and PKCα levels (ODs from left panel) were compared to the ability to phosphorylate Erk in these SCLC cell lines. Results shown are representative of at least three independent experiments.
The PKCε translocation inhibitor ([…]) and PKCα translocation inhibitor ([…]) (Souroujon and Mochly-Rosen, 1998; Yedovitzky et al., 1997) were made cell-permeable by linkage to the HIV-derived TITAT sequence ([…]). H510 cells in RPMI were incubated for 4 h with 40 μM of either translocation inhibitor peptides or TITAT prior to further treatments. The activity of these inhibitors on ERK phosphorylation was assessed by Western Blotting.

Bcl-XL and XIAP = Bcl-XL and XIAP expression in HEK293Tet cells, Western blot; format: cell-based
Protocol: (§1) HEK 293-Tet clones transfected with an inducible vector for kinase active S6K1 (1KA), S6K2 (2KA) or empty vector were treated with tetracycline for 6 h prior to (A) Western-blotting (WB) as indicated or (B) S6K1 or 2 kinase assay using an S6 peptide as substrate. (C) V-, 1KA- and 2KA-293 cells were incubated in the absence of tetracycline with (white bars) or without (hatched bars) serum for 18 h or with tetracycline in the absence of serum (black bars) and the proportion of apoptotic cells determined using annexin V staining. (D) Cell lysates from 2KA and 1KA-293 cells treated with or without tetracycline, FGF-2 and PD098059 were analysed for Bcl-XL expression and S6 phosphorylation. (E) HEK 293 cells incubated with or without FGF-2 (4h) prior to serum deprivation (18 h) were analysed by annexin V staining. (A, D, F) Actin and lamin B immunodetections were used as a loading control. (B, C, E) Results represent the average of triplicates±SEM. (A-E) Results are representative of at least three independent experiments.
(A and B) HEK293 expressing tetracycline-inducible kinase-active S6K1 (1KA) or 2 (2KA) were treated with or without tetracycline for 6 h (B) or the time indicated (A). (A) Cells were grown in the absence of FCS and a cell death time-course performed. Cell death was assessed microscopically by determining Trypan blue positivity. Results shown are averages±SEM of triplicates. (C) HEK293 cells were treated for 1 h with or without 25 μM PD098059 prior to stimulation with FGF-2 for 4 h. (B and C) Cell lysates were analysed by SDS-PAGE/WB for the levels of Bcl-XL and XIAP. Actin was used as a loading control. Results shown are representative of at least three independent experiments.

HEK293Tet cells = assay: Survival of HEK293Tet cells after serum deprivation (annexin V); format: cell-based; conditions: FGF-2 4 h before serum deprivation 18 h
Protocol: as §1
SCLC cells (5×10^4 cells/ml SFM) were pre-treated with or without 0.1 ng/ml FGF-2 for 4 h prior to treatment with 0.1 μM etoposide and incubated at 37° C. for 96 h. […] The proportion of cell death was either determined by trypan blue exclusion or by Annexin V staining and flow cytometry as previously described (Pardo et al., 2002).

S6K2 [2] = assay: S6K2 immune complex kinase assay (S6-peptide substrate), ε-H69 cells; format: cell-based; conditions: ε-H69 cells (PKCε over-expressing), 40 μM peptide 4 h
Protocol: (§2) Cell lysates were subjected to immunoprecipitation with a PKCε antibody prior to Western blotting (WB) for the molecules indicated. (A-lower panel) Total cell lysate was Western-blotted as indicated. (B and E) […] was immunoprecipitated from V-H69 and ε-H69 (B) or […] cells (E) following 4 h treatment with or without ε[…] and TITAT. Immunoprecipitates were subjected to in-vitro kinase assays with S6-peptide as a substrate and the results shown are average cpm±SEM from triplicates of a representative experiment. (C) The phosphorylation of the endogenous V-H69 and -H69 cells in SFM were washed three times in RPMI 1640, and 2×10^6 cell aliquots were incubated in this medium for 30 min at 37° C. Cells were treated in the presence or absence of 40 μM ([…] or TITAT peptide for 4 h as indicated, prior to performing an immune complex kinase assay for S6K1 or […] as described (Pardo et al., 2001). In separate experiments, HEK293Tet cells expressing tetracycline-inducible kinase active cytoplasmic forms of S6K1 or […] were incubated with or without tetracycline prior to lysis and immune complex kinase assay.

S6K2 [3] = assay: S6K2 immune complex kinase assay, FGF-2-stimulated H510 cells; format: cell-based; conditions: peptide 4 h
Protocol: as §2

S6K2 (human) = S6K2 (human) (UniProt Q9UBS0)
S6 protein = assay: Phosphorylation of endogenous S6 protein in ε-H69 cells (phospho-S6 antibody); format: cell-based; conditions: ε-H69 cells in SFM
Protocol: S6 protein from V-H69 and ε-H69 cells in SFM treated with or without εTI-TITAT was determined using a phospho-S6 antibody. (D and F) PKCε KO MEFs re-expressing (KO+ε) or not (KO) […] were (D) grown in 10% FCS and analysed for phospho-S6 levels or (F) stimulated with or without FGF-2 and FCS prior to S6K2 immunoprecipitation and Western blotted as indicated. (C and D) Lamin B and actin immunodetection were used as a loading control. (A-F) Results shown are representative of at least 3 independent experiments.

[4] = 40 μM peptide 4 h, FGF-2 0.1 ng/ml 5 min

O=C(O)CN(CC(=O)O)c1ccccc1OCCOc1ccccc1N(CC(=O)O)CC(=O)O [BAPTA]
inhibition of FGF-2-mediated ERK phosphorylation [1]: Only GF109203X and Rottlerin inhibited

CN(C)CCCn1cc(C2=C(c3c[nH]c4ccccc34)C(=O)NC2=O)c2ccccc21 [GF109203X]
inhibition of FGF-2-mediated ERK phosphorylation [1]: inhibited

Cn1c2ccccc2c2c3c(c4c5ccccc5n(CCC#N)c4c21)CNC3=O [Gö6976]
inhibition of FGF-2-mediated ERK phosphorylation [1]: Only GF109203X and Rottlerin inhibited

O=c1cc(O)cc(/C=C/c2ccc(O)c(O)c2)o1 [Hispidin]
inhibition of FGF-2-mediated ERK phosphorylation [1]: Only GF109203X and Rottlerin inhibited

COc1cccc(-c2cc(=O)c3ccccc3o2)c1N [PD098059]
block of FGF-2-induced Bcl-XL and XIAP expression (Bcl-XL and XIAP; HEK293 cells, 25 μM PD098059 1 h before FGF-2 4 h): could be blocked | suppression of increased Bcl-XL and XIAP expression (Bcl-XL and XIAP; KA-S6K2 HEK293Tet cells, tetracycline induced): could not be suppressed

CC(=O)c1c(O)c(C)c(O)c(Cc2c(O)c3c(c(C(=O)/C=C/c4ccccc4)c2O)OC(C)(C)C=C3)c1O [Rottlerin]
inhibition of FGF-2-mediated ERK phosphorylation [1]: inhibited

FGF-2: fibroblast growth factor-2, purchased from Calbiochem
survival (HEK293Tet cells): increased survival | Bcl-XL and XIAP expression (Bcl-XL and XIAP; HEK293Tet cells stimulated with FGF-2): increased

TITAT (GRKKRRQRRRPPQ)
inhibition of ERK phosphorylation in response to FGF-2 (in words) [1, 4]: neither αTI-TITAT nor TITAT inhibited | effect on basal S6K2 activity (S6K2 [2]): no effect | inhibition of FGF-2-induced S6K2 activation (S6K2 [3]): but not by αTI-TITAT or TITAT

wt-PKCε-GFP (enzyme)
basal S6K2 activity (immune complex kinase assay with S6-peptide) (S6K2 (human)): 2 fold

αTI-TITAT (SLNPEWNETGRKKRRQRRRPPQ)
inhibition of ERK phosphorylation in response to FGF-2 (in words) [1, 4]: neither αTI-TITAT nor TITAT inhibited | effect on basal S6K2 activity (S6K2 [2]): no effect | inhibition of FGF-2-induced S6K2 activation (S6K2 [3]): but not by αTI-TITAT or TITAT

εTI-TITAT (EAVSLKPTGRKKRRQRRRPPQ)
inhibition of ERK phosphorylation in response to FGF-2 [1, 4]: 60% | effect on basal S6K2 activity (S6K2 [2]): lowered S6K2 activity in ε-H69 cells to a level comparable to that found in V-H69 cells | effect on increased S6 phosphorylation (S6 protein): prevented | inhibition of FGF-2-induced S6K2 activation (S6K2 [3]): inhibited
